Where two headings read alike, the source gives them in different places.
Key:
[1] = format: in vivo, C57BL/6J mice; details: single oral RK 200 mg kg^−1; for half-life: T1/2 (elimination half-life)
[2] = Plasma pharmacokinetics after a single oral RK dose, male vs female mice; format: in vivo, C57BL/6J mice
[3] = Plasma pharmacokinetics after a single oral RK dose, normal-weight; format: in vivo, C57BL/6J mice; details: for AUC(0-t): AUC (0–12 h); for half-life: T1/2 (elimination half-life)
[4] = format: in vivo, C57BL/6J mice; details: for Cmax: mean±SEM; for presence in the brain: brain of either sexes after oral RK
[5] = Distribution in white adipose tissue; format: in vivo, C57BL/6J mice; details: epididymal WAT; for time within which considerable accumulation in WAT was observed: male mice, oral RK 200 mg kg^−1; for increase in WAT level in obese animals compared with normal-weight: between 15 and 30 min
[6] = format: in vivo; details: in 24 h, normal-weight male mice, preliminary dosing tests
[7] = Br-N: brain, normal-weight male mice
[8] = male, C57BL/6J, mouse, brain, po, 200 mg/kg, Br-N: brain, normal-weight male mice
[9] = male, C57BL/6J, mouse, brain, po, 200 mg/kg, Tmax, Br-N: brain, normal-weight male mice
[10] = female, C57BL/6J, mouse, plasma, po, 200 mg/kg
[11] = male, C57BL/6J, mouse, plasma, po, 200 mg/kg
[12] = male, C57BL/6J, mouse, plasma, po, 200 mg/kg, Pl-N: plasma, normal-weight male mice, single oral RK 200 mg kg^−1
[13] = male, C57BL/6J, mouse, plasma, po, 200 mg/kg, Pl-O: plasma, obese male mice, single oral RK 200 mg kg^−1
[14] = male, C57BL/6J, mouse, plasma, po, 200 mg/kg, Tmax, Pl-N: plasma, normal-weight male mice, single oral RK 200 mg kg^−1
[15] = Br-F: brain, female LFD mice, single oral RK 200 mg kg^−1
[16] = Br-M: brain, male LFD mice, single oral RK 200 mg kg^−1
[17] = female, C57BL/6J, mouse, brain, po, 200 mg/kg
[18] = male, C57BL/6J, mouse, brain, po, 200 mg/kg
[19] = male, C57BL/6J, mouse, brain, po, 200 mg/kg, Br-O: brain, obese male mice
[20] = Pl-F: plasma, female LFD mice, single oral RK 200 mg kg^−1
[21] = Pl-M: plasma, male LFD mice, single oral RK 200 mg kg^−1
[22] = Pl-N: plasma, normal-weight male mice, single oral RK 200 mg kg^−1
[23] = Pl-O: plasma, obese male mice, single oral RK 200 mg kg^−1

| Cmax [1, 7] [nmol/g] | Cmax ([1]; Br-O: brain, obese male mice) [nmol/g] | half-life [1, 8] [min] | Tmax [1, 9] [min] | Cmax [2, 10] [µM] | Tmax [2, 10] [min] | AUC(0-t) [2, 11] [µM·h] | Tmax [2, 11] [min] | half-life [2, 11] [min] | AUC(0-t) [3, 12] [µM·h] | half-life [3, 12] [min] | half-life [3, 13] [min] | Tmax [3, 14] [min] | Cmax [4, 15] [nmol/g] | Cmax [4, 16] [nmol/g] | Tmax [4, 17] [min] | half-life [4, 17] [min] | Tmax [4, 18] [min] | half-life [4, 18] [min] | time within which considerable accumulation in WAT was observed [5] [min] | Structure (SMILES) | further results |
| --- | --- | --- | --- | --- | --- | --- | --- | --- | --- | --- | --- | --- | --- | --- | --- | --- | --- | --- | --- | --- | --- |
| 0.031 ± 0.003 | 0.025 ± 0.002 | 35.5 ± 3.94 | 20 | 0.024 ± 0.002 | 15 | 0.057 ± 0.006 | 20 | 41.8 ± 1.25 | 0.08 ± 0.006 | 48.9 ± 6.9 | 51.7 ± 4.36 | 20 | 0.020 ± 0.006 | 0.021 ± 0.003 | 15 | 20.3 ± 1.41 | 15 | 21 ± 0.16 | – | OCCc1ccc(O)c(O)c1 [3,4-DHPE, 2-(3,4-dihydroxyphenyl)ethanol] | half-life [2, 10]: 63.6 ± 6.84 min |
| – | – | – | – | – | – | – | – | – | – | – | – | – | – | – | – | – | – | – | – | O=C(O)CCc1cccc(O)c1 [3-(3-hydroxyphenyl)propionic acid] | presence in the brain [4]: not found |
| 6.14 ± 0.49 | 7.92 ± 1.60 | 31.5 ± 4.38 | 25 | 43.6 ± 2.9 | 40 | 108 ± 10.9 | 50 | 104 ± 2.1 | 20.7 ± 2.92 | 73 ± 4.7 | 56.3 ± 8.8 | 20 | 1.28 ± 0.08 | 1.03 ± 0.14 | 20 | – | 15 | 64.7 ± 7.78 | ≤ 15 | OCCc1ccc(O)cc1 [4-HPE, 2-(4-hydroxyphenyl)ethanol] | half-life [1, 19]: 38.8 ± 2.56 min; AUC(0-t) [2, 10]: 98.7 ± 7.38 µM·h; AUC(0-t) [3, 13]: 28.7 ± 3.65 µM·h |
| 0.23 ± 0.012 | – | 36.2 ± 1.6 | 30 | – | 15 | 0.465 ± 0.046 | 40 | 41.4 ± 2.91 | 1.04 ± 0.16 | 41.6 ± 3 | 48 ± 2.1 | 30 | 0.112 ± 0.042 | 0.067 ± 0.011 | 25 | 35.8 ± 2.29 | 20 | 33.4 ± 0.73 | ≤ 15 | CC(=O)C=Cc1ccc(O)c(O)c1 [DHPhLiAce, 3,4-dihydroxybenzylideneacetone] | half-life [1, 19]: 37.2 ± 0.22 min; half-life [2, 10]: 30 ± 4.24 min; AUC(0-t) [3, 13]: 1.38 ± 0.04 µM·h |
| 32.7 ± 4.34 | 46.7 ± 6.2 | 39.5 ± 1.9 | 20 | 281 ± 17.1 | 15 | 358 ± 34 | 15 | 78.4 ± 3.55 | 387 ± 25.6 | 73.3 ± 1.2 | 94.7 ± 7.8 | 15 | 37.4 ± 8.73 | 28.9 ± 2.42 | 15 | 28.3 ± 1.65 | 15 | 25.7 ± 2 | ≤ 15 | CC(=O)CCc1ccc(O)cc1 [RK, 4-(4-hydroxyphenyl)-2-butanone] | half-life [1, 19]: 41.5 ± 4 min; increase in WAT level in obese animals compared with normal-weight [5]: 30–90%; higher residual content in WAT of obese mice ([5]; between 30 min and 2 h, obese vs normal-weight): > 100%; clearance from the bloodstream [6]: > 99%; Tmax ([2]; both, C57BL/6J, mouse, plasma, po, 200 mg/kg): ~15 min; AUC(0-t) [2, 10]: 299 ± 20.2 µM·h; time of absorption and tissue accumulation ([2]; oral RK 200 mg kg^−1, this study): < 30 min; maximal circulating concentration ([3]; plasma, normal-weight mice): 236 nM; maximal circulating concentration ([3]; plasma, obese mice): 318 nM; twelve-hour plasma accumulation in obese animals as % of normal-weight ones ([3]; plasma, obese vs normal-weight): 152.2–197.6% |
| – | – | – | – | 0.086 ± 0.022 | 25 | 0.05 ± 0.005 | 20 | 26.7 ± 2.81 | 0.039 ± 0.008 | 31 ± 5.6 | 41.7 ± 1.2 | 20 | – | – | – | – | – | – | ≤ 15 | COc1ccc(CCC(C)=O)cc1 [RK-Me, 4-(4-methoxy-phenyl)-2-butanone] | AUC(0-t) [2, 10]: 0.069 ± 0.01 µM·h; half-life [2, 10]: 31.4 ± 1.84 min; AUC(0-t) [3, 13]: 0.047 ± 0.007 µM·h; presence in the brain [4]: not found |
| 55.1 ± 8.12 | 60.3 ± 6.6 | – | – | – | – | – | – | – | – | – | – | – | 21.6 ± 4.72 | 21.0 ± 2.68 | – | – | – | – | ≤ 15 | CC(O)CCc1ccc(O)cc1 (stereo not drawn) [ROH, raspberry alcohol] | T1/2 (elimination half-life) [1, 7]: 33.7 ± 2.2 min; Tmax [1, 7]: 20.0 ± 5.0 min; Tmax ([1]; Br-O: brain, obese male mice): 40.0 ± 10.0 min; increase in WAT level in obese animals compared with normal-weight [5]: 30–90%; AUC (0–12 h) [2, 20]: 158 ± 17.1 nmol/mL/min; Tmax [2, 20]: 25.0 ± 4.99 min; Cmax ([2]; Pl-F: plasma, female LFD mice, single oral RK 200 mg kg^−1, mean±SEM): 130 ± 12.7 µM; AUC (0–12 h) [2, 21]: 177 ± 11.8 nmol/mL/min; T1/2 (elimination half-life) [2, 21]: 63.2 ± 2.61 min; Tmax [2, 21]: 25.0 ± 4.99 min; AUC (0–12 h) [3, 22]: 208 ± 22.0 nmol/mL/min; T1/2 (elimination half-life) [3, 22]: 66.1 ± 1.7 min; Tmax [3, 22]: 25.0 ± 5.0 min; T1/2 (elimination half-life) [3, 23]: 70.0 ± 1.5 min; Tmax [3, 23]: 50.0 ± 10.0 min; T1/2 (elimination half-life) [4, 16]: 32.0 ± 0.77 min; Tmax [4, 16]: 20.0 ± 5.0 min |
| 2.07 ± 0.24 | – | 44.4 ± 2.18 | 40 | 9.94 ± 2.4 | 15 | 31 ± 3.65 | 25 | 46.4 ± 2.1 | 61.2 ± 4.7 | 40.9 ± 4.8 | 68.8 ± 17.3 | 25 | 1.49 ± 0.30 | 1.51 ± 0.15 | – | 89.2 ± 10 | 15 | 84.1 ± 3.55 | ≤ 15 | COc1cc(CCC(C)=O)ccc1O [VLAce, vanillylacetone] | – |
| – | – | – | – | – | – | – | – | – | – | – | – | – | – | – | – | – | – | – | – | CC(=O)C=Cc1ccccc1 [benzylideneacetone] | presence in the brain [4]: not found |
| – | – | – | – | – | – | – | – | – | – | – | – | – | – | – | – | – | – | – | – | COc1cc(/C=C/C(=O)O)ccc1O [ferulic acid] | presence in the brain [4]: not found |

Source: publication PMC7329366 (Molecular nutrition & food research, 2020)
